Measured values from PMC6270011, “Design and Synthesis of Arylthiophene-2-Carbaldehydes via Suzuki-Miyaura Reactions and Their Biological Evaluation” (Molecules, 2013).
≈ marks a conversion by molar mass, not a printed value. Like-named read-outs stand apart in the source and are kept apart here.

Assays:
[1] = Nitric oxide (NO) scavenging assay; type: biochemical
Text: Nitric oxide (NO) is a free radical causing inflammatory disorders and cancer in the human body when sodium nitroprusside decomposes to produce nitric oxide. The antioxidant activity of various thiophene derivatives has been reported in the literature and it has also been observed that compounds with high antioxidant activity served as antitumor agents. The newly synthesized compounds reacted directly with nitric oxide and inhibited nitrite formation in an excellent way.
The reaction mixtures comprising sample solution (2 µL), phosphate buffer (17 µL) and sodium nitroprusside (20 µL) were incubated at 37 °C for 2 h in well plates. Then Griess reagent (20 µL, 0.3% sulphanilic acid in glacial acetic acid + 0.1% naphthylethylenediamine (NED): equal volumes of both solutions mixed just before use) was added to each well plate and the mixture kept at room temperature for 20 min to develop the color. The absorbance was measured at 528 nm by using an ELISA reader. The results were processed using Gen 5 software. All the reactions were performed in triplicate. Positive control (containing known antioxidant) and control (containing all samples) were run in parallel. Negative control was used to calibrate the instrument. The % age antioxidant activity was determined by using the following formula: % antioxidant activity = [(Absorbance of control − absorbance of sample)/(Absorbance of control)] × 100

[2] = system: human red blood cells (erythrocytes); type: cell-based
Procedure: Three mL of freshly obtained human blood was placed in heparinized tubes to avoid coagulation, gently mixed and poured into a sterile 15 mL Falcon tube and centrifuged for 5 min at 1,000 ×g. The supernatant was discarded and red blood cells were washed three times with chilled (4 °C) sterile isotonic phosphate buffer saline pH 7.4 (5 mL). Erythrocytes (10^8 cells/mL) were maintained for each assay by dilution with phosphate buffer saline. Erythrocytes were counted on a heamacytometer. Twenty µL of each compound was mixed with red blood cells suspension (180 μL) separately. The samples were incubated at 37 °C for 35 min. The samples were placed on ice for 5 min and then agitated at 1,000 ×g for 5 min. Supernatant (100 µL) were taken from each tube and diluted 10 times with chilled (4 °C) phosphate buffered saline. Triton X-100 (0.1% v/v) was taken as a positive control and PBS was negative control and then subjected to the same process. […] The percentage RBSs lyses for each sample was calculated.

Escherichia coli = experiment: Antibacterial activity (disc / inhibition zone) against Escherichia coli; conditions: for zone of inhibition at 50 µg/mL / zone of inhibition at 25 µg/mL: read-out: Inhibition zone, E.coli
Salmonella typhi = experiment: Antibacterial activity (disc / inhibition zone) against Salmonella typhi; conditions: Salmonella enterica; for zone of inhibition at 50 µg/mL / zone of inhibition at 25 µg/mL: read-out: Inhibition zone, S. typhi
Bacillus subtilis = experiment: Antibacterial activity (disc / inhibition zone) against Bacillus subtilis; conditions: for zone of inhibition at 50 µg/mL / zone of inhibition at 25 µg/mL: read-out: Inhibition zone, B. subtilis
Shigella dysenteriae = experiment: Antibacterial activity (disc / inhibition zone) against Shigella dysenteriae; conditions: read-out: Inhibition zone, S. dysenteriae
Staphylococcus aureus = experiment: Antibacterial activity (disc / inhibition zone) against Staphylococcus aureus; conditions: read-out: Inhibition zone, S. aureus
Pseudomonas aeruginosa = experiment: Antibacterial activity (disc / inhibition zone) against Pseudomonas aeruginosa; conditions: for zone of inhibition at 50 µg/mL / zone of inhibition at 25 µg/mL: read-out: Inhibition zone, P. aeruginosa; for IC50: read-out: IC50 against Pseudomonas aeruginosa
[3] = 25 µg/mL, read-out: % Activity at 25 µg (NO scavenging)
[4] = 50 µg/mL, read-out: % Activity at 50 µg (NO scavenging)
[5] = 100 µg/mL, read-out: % Activity at 100 µg (NO scavenging)
[6] = human erythrocytes, 37 °C, 35 min

Molecule | IC50 (NO scavenging) [1] [mg/L] | inhibition [1, 3] [%] | inhibition [1, 4] [%] | inhibition [1, 5] [%] | Haemolytic activity, percentage of lysis (Average ± SD) [2, 6] [%] | melting point [°C] | zone of inhibition at 50 µg/mL (Escherichia coli) [mm] | zone of inhibition at 50 µg/mL (Salmonella typhi) [mm] | zone of inhibition at 50 µg/mL (Bacillus subtilis) [mm] | zone of inhibition at 50 µg/mL (Shigella dysenteriae) [mm] | zone of inhibition at 50 µg/mL (Staphylococcus aureus) [mm] | zone of inhibition at 50 µg/mL (Pseudomonas aeruginosa) [mm] | zone of inhibition at 25 µg/mL (Escherichia coli) [mm] | zone of inhibition at 25 µg/mL (Salmonella typhi) [mm] | zone of inhibition at 25 µg/mL (Bacillus subtilis) [mm] | zone of inhibition at 25 µg/mL (Shigella dysenteriae) [mm] | zone of inhibition at 25 µg/mL (Staphylococcus aureus) [mm] | zone of inhibition at 25 µg/mL (Pseudomonas aeruginosa) [mm] | Haemolytic activity, in words [2] | also measured
O=Cc1cc(-c2ccccc2)cs1 [2a, 4-Phenylthiophene-2-carbaldehyde] | 92.5 (≈ 491 µM) | 12 ± 0.037 | 33 ± 0.0035 | 48 ± 0.049 | 3.947 ± 0.078 | 57 to 59 | 47 ± 0.15 | 61 ± 0.13 | 61 ± 0.14 | 63 ± 0.18 | 63 ± 0.18 | 67.6 ± 0.001 | – | – | – | – | – | – | – | –
O=Cc1cc(-c2cc(C(F)(F)F)cc(C(F)(F)F)c2)cs1 [2b, 4-(3,5-Bis(trifloromethyl)phenyl)thiophene-2-carbaldehyde] | 66.6 (≈ 205 µM) | 10 ± 0.02 | 45 ± 0.001 | 60 ± 0.021 | 5.003 ± 0.078 | 95 to 97 | – | 63 ± 0.25 | 59 ± 0.1 | 62.4 ± 0.1 | 62.4 ± 0.1 | 67 ± 0.01 | 18 ± 0.13 | 33 ± 0.2 | 23 ± 0.09 | 33 ± 0.05 | 36.6 ± 0.4 | 42 ± 0.02 | – | –
O=Cc1cc(-c2ccc(Cl)s2)cs1 [2c] | 83.3 (≈ 364 µM) | 18 ± 0.007 | 40 ± 0.038 | 55 ± 0.04 | 3.934 ± 0.095 | 229 to 231 | 24 ± 0.17 | 64 ± 0.5 | 60 ± 0.01 | 64 ± 0.11 | 64 ± 0.11 | 60 ± 0.009 | 14 ± 0.14 | 34 ± 0.05 | 36.2 ± 0.05 | 35 ± 0.01 | 34 ± 0.01 | 45 ± 0.019 | – | IC50 (Bacillus subtilis; read-out: IC50 against Bacillus subtilis): 39.4 mg/L (≈ 172 µM)
N#Cc1cc(-c2csc(C=O)c2)cc(C(F)(F)F)c1 [2d, 3-(5-Formylthiophene-3-yl)-5-(trifloromethyl)benzonitrile] | 45.6 (≈ 162 µM) | 12 ± 0.025 | 58 ± 0.01 | 73 ± 0.0028 | 3.306 ± 0.058 | 252 to 254 | 40.5 ± 0.19 | 64 ± 0.05 | 58 ± 0.35 | 63 ± 0.31 | 63 ± 0.31 | 67 ± 0.01 | 32.5 ± 0.12 | 30 ± 0.15 | 28.3 ± 0.75 | 35 ± 0.15 | 33 ± 0.01 | 46 ± 0.02 | lowest haemolytic property | IC50 (Pseudomonas aeruginosa): 29.7 mg/L (≈ 106 µM)
Cc1ccc(-c2csc(C=O)c2)cc1 [2e, 4-p-Tolylthiophene-2-carbaldehyde] | – | -15 ± 0.04 | -12 ± 0.037 | 3 ± 0.0014 | 3.356 ± 0.075 | 58 to 60 | 62 ± 0.01 | 53 ± 0.12 | 54 ± 0.17 | 58 ± 0.01 | 58 ± 0.01 | 60 ± 0.03 | 32 ± 0.05 | 22.2 ± 0.14 | 22.4 ± 0.13 | 41 ± 0.05 | 28 ± 0.2 | 44 ± 0.02 | lowest haemolytic property | IC50 (Escherichia coli; read-out: IC50 against Escherichia coli): 40 mg/L (≈ 198 µM)
COc1ccc(-c2csc(C=O)c2)cc1 [2f, 4-(4-Methoxyphenyl)thiophene-2-carbaldehyde] | – | 5 ± 0.005 | 10 ± 0.028 | 25 ± 0.005 | 6.083 ± 0.143 | 68 to 70 | 8 ± 0.01 | 63 ± 0.11 | 54 ± 0.23 | 61.4 ± 0.56 | 61.4 ± 0.56 | 64 ± 0.04 | 9 ± 0.03 | 36 ± 0.01 | 24.4 ± 0.03 | 42 ± 0.7 | 34 ± 0.05 | 34 ± 0.04 | highest haemolytic action | IC50 (Salmonella typhi; read-out: IC50 against Salmonella typhi): 37.9 mg/L (≈ 174 µM)
O=Cc1cc(-c2ccc(Cl)c(Cl)c2)cs1 [2h, 4-(3,4-Dichlorophenyl)thiophene-2-carbaldehyde] | – | 13 ± 0.002 | 20 ± 0.025 | 35 ± 0.077 | 3.487 ± 0.054 | 158 to 160 | 60 ± 0.24 | 57 ± 0.01 | 58 ± 0.22 | 59.4 ± 0.45 | 59.4 ± 0.45 | 67 ± 0.021 | 32 ± 0.03 | 30 ± 0.13 | 28 ± 0.03 | 29 ± 0.19 | 39.4 ± 0.05 | 40 ± 0.041 | – | –
O=Cc1cc(-c2ccc(F)c(Cl)c2)cs1 [2i, 4-(3-Chloro-4-fluorophenyl)thiophene-2-carbaldehyde] | 46.1 (≈ 192 µM) | 12 ± 0.05 | 57 ± 0.0021 | 72 ± 0.009 | 9.779 ± 0.095 | 108 to 110 | 26 ± 0.023 | 59.5 ± 0.25 | 56 ± 0.5 | 58 ± 0.16 | 58 ± 0.16 | 66 ± 0.01 | 16 ± 0.043 | 33 ± 0.25 | 36.5 ± 0.04 | 43 ± 0.105 | 27.8 ± 0.12 | 42 ± 0.04 | highest haemolytic action | –
O=C1O[C@H]([C@@H](O)CO)C(O)=C1O [Ascorbic Acid, ascorbic acid, reference compound] | – | 40 ± 0.038 | 61 ± 0.004 | 77 ± 0.001 | – | – | – | – | – | – | – | – | – | – | – | – | – | – | – | –
[H]/N=C(/N)N[C@H]1[C@H](O)[C@@H](O)[C@H](O[C@@H]2O[C@@H](C)[C@](O)(C=O)[C@H]2O[C@@H]2O[C@@H](CO)[C@H](O)[C@@H](O)[C@@H]2NC)[C@@H](N/C(N)=N\[H])[C@@H]1O [Streptomycin, streptomycin, reference compound] | – | – | – | – | – | – | 63 ± 0.002 | 53 ± 0.001 | 53 ± 0.001 | 55 ± 0.034 | 55 ± 0.03 | 63 ± 0.002 | 29.3 ± 0.002 | 33 ± 0.001 | 34 ± 0.015 | 48 ± 0.05 | 15 ± 0.034 | 41.5 ± 0.002 | – | IC50 (Pseudomonas aeruginosa): 35.2 mg/L (≈ 60.5 µM)
Triton X-100 [Triton-X 100, reference compound] | – | – | – | – | – | – | – | – | – | – | – | – | – | – | – | – | – | – | – | Haemolytic activity, percentage of lysis (Average ± SD) [2]: 99.824 ± 0.536%
